Values quoted from earlier work, collected in US12005095B2, “Eutectic extraction solvents, extraction methods by eutectigenesis using said solvents, and extracts derived from said extraction methods” (Givaudan France Naturals SAS, priority 2015, dated 2024).

Tested on: cellular melanogenesis

O=C1c2c(O)cc(O)cc2O[C@H](c2ccc(O)c(O)c2)[C@H]1O [taxifolin]
effect on cellular melanogenesis, in words: inhibit cellular melanogenesis
